{"source": "patent US7842479B2", "about": "(priority 2004, dated 2010)", "key": {"[1]": {"tested_on": "cidABC and lrgAB transcription", "format": "cell-based, S. aureus"}, "[2]": {"tested_on": "alsSD transcription"}, "[3]": {"tested_on": "cidC-encoded pyruvate oxidase", "format": "biochemical, S. aureus"}, "[4]": {"tested_on": "S. aureus UAMS-1", "format": "cell-based"}, "[5]": {"tested_on": "S. aureus KB1050 (cidA mutant)", "format": "cell-based"}, "[6]": {"tested_on": "SH1000 strain", "format": "cell-based"}, "[7]": {"tested_on": "8325-4 strain", "format": "cell-based"}, "[8]": {"tested_on": "SH1000 strain", "format": "cell-based", "remark": "listed apart in the source"}, "[9]": {"tested_on": "8325-4 strain"}}, "note": "“Also recorded” adds a separate entry of the source. Counter-ions that a name gives are not always drawn. Like-named read-outs stand apart in the source and are kept apart here.", "data": [{"molecule": "CC(=O)O", "note": "[acetic acid]", "values": [{"measurement": "cidABC expression", "setting": "[1]", "result": "dramatically increased expression of cidABC"}, {"measurement": "cidABC and lrgAB expression", "setting": "[1]; pH 5", "result": "pronounced positive effect on both cidABC and lrgAB expression"}, {"measurement": "alsSD expression", "setting": "[2]", "result": "dramatically increased expression of alsSD at all time points tested"}]}, {"molecule": "[Cl-].[Na+]", "note": "[NaCl, sodium chloride]", "values": [{"measurement": "cidABC and lrgAB expression", "setting": "[1]; pH 4.5", "result": "not detected at any of the pH values tested"}]}, {"molecule": "CC(=O)[O-].[K+]", "note": "[potassium acetate]", "values": [{"measurement": "pyruvate oxidase activity with carbon source added instead of sodium pyruvate", "setting": "[3]", "result": "the only one that possessed activity was the phosphoenol pyruvate"}]}, {"molecule": "CO[C@H]1/C=C/O[C@@]2(C)Oc3c(C)c(O)c4c(O)c(c(/C=N/N5CCN(C)CC5)c(O)c4c3C2=O)NC(=O)/C(C)=C\\C=C\\[C@H](C)[C@H](O)[C@@H](C)[C@@H](O)[C@@H](C)[C@H](OC(C)=O)[C@@H]1C", "note": "[rifampin]", "values": [{"measurement": "decrease in viable cell counts", "setting": "[4]", "result": "three log decrease in viable cell counts; also recorded: just over one log decrease"}, {"measurement": "rifampin sensitivity relative to UAMS-1", "setting": "[5]", "result": "decreased rifampin sensitivity relative to UAMS-1"}, {"measurement": "viable cell counts compared to UAMS-1 after incubation with rifampin", "setting": "[5]", "result": "greater than one log unit higher viable cell counts"}, {"measurement": "loss of viable cell counts", "setting": "[6]", "result": "lose two log units of viable cell counts"}, {"measurement": "loss of viable cell counts", "setting": "[7]", "result": "lose two log units of viable cell counts"}, {"measurement": "loss of viability", "setting": "[8]", "result": "two log loss of viability"}, {"measurement": "difference in viable cell counts determined using the two methods", "setting": "[9]", "result": "greater than 1,000 fold"}, {"measurement": "viability", "setting": "[9]; Staphylococcus aureus", "result": "~100", "unit": "%"}]}, {"molecule": "Cl", "note": "[HCl]", "values": [{"measurement": "cidABC and lrgAB expression", "setting": "[1]; pH 5", "result": "elevated the expression of cidABC relative to growth in neutral media"}]}, {"molecule": "OCC(O)CO", "note": "[glycerol]", "values": [{"measurement": "pyruvate oxidase activity with carbon source added instead of sodium pyruvate", "setting": "[3]", "result": "the only one that possessed activity was the phosphoenol pyruvate"}]}, {"molecule": "CC(O)C(=O)[O-].[Na+]", "note": "(stereo not shown) [sodium lactate]", "values": [{"measurement": "pyruvate oxidase activity with carbon source added instead of sodium pyruvate", "setting": "[3]", "result": "the only one that possessed activity was the phosphoenol pyruvate"}]}, {"molecule": "C=C(OP(=O)(O)O)C(=O)O", "note": "[phosphoenol pyruvate]", "values": [{"measurement": "pyruvate oxidase activity with carbon source added instead of sodium pyruvate", "setting": "[3]", "result": "approximately half of what was seen with sodium pyruvate"}]}, {"molecule": "CC(=O)[O-].[Na+]", "note": "[Na-acetate, sodium acetate]", "values": [{"measurement": "cidABC and lrgAB expression", "setting": "[1]; pH 4.5", "result": "dramatically increased"}, {"measurement": "cidABC and lrgAB expression", "setting": "[1]; pH 6.5", "result": "undetectable"}]}]}
